Results reported in the NIST ThermoML archive (doi:10.1016/j.jct.2012.06.014).

Assay: cn = amount concentration of the nth substance listed, in mol/dm3
Details: 298.15 K, 101 kPa, Liquid, Open capillary

O=S(=O)([O-])[O-].O=S(=O)([O-])[O-].O=S(=O)([O-])[O-].[Fe+3].[Fe+3] [ferric sulfate] + O
Details	binary diffusion coefficient [m2/s]
c1 = 0.05	1.48e-09
c1 = 0.06	1.45e-09
c1 = 0.08	1.42e-09
c1 = 0.1	1.41e-09
c1 = 0.15	1.42e-09
c1 = 0.2	1.48e-09
